Measurements: patent US20080300253A1, “TREATMENT OF INFLAMMATORY DISORDERS WITH PRAZIQUANTEL” (Gencross, Inc., priority 2005, published 2008)
Where two headings read alike, the source gives them in different places.

Key:
[1] = tested on: TNF-α; experiment: TNF-α amount in LPS-treated differentiated THP-1 cells (Western blotting); type: cell-based, human
Description: (§1) The THP-1 human monocytic cell line was treated with 200 nM phorbol myristate acetate (PMA) for 24 hours, resulting in differentiation into functional macrophages. Differentiated THP-1 cells were treated with 2 μg/ml lipopolysaccharide (LPS), and total proteins or nuclear proteins were isolated 0.5, 1, 2, and 3 hours later. In some differentiated THP-1 cell cultures, a combination of LPS and 100 nM praziquantel was added prior to isolation of total and nuclear proteins at the same time points. Both total protein and nuclear protein were quantitated by Western blotting. […] Thus, praziquantel inhibits LPS-induced NF-κB activity by preventing its translocation to the nucleus where it exerts its transcriptional activation effects. Neither α-tubulin nor lamin B protein was affected by either LPS or praziquantel treatment (FIG. 1).

[2] = tested on: p38; experiment: Phosphorylated p38 in LPS-treated differentiated THP-1 cells (Western blotting); type: cell-based, human; settings: 2 μg/ml LPS + 100 nM praziquantel vs LPS alone
Description: as §1

[3] = tested on: ATF-2; experiment: Phosphorylated ATF-2 in LPS-treated differentiated THP-1 cells (Western blotting); type: cell-based, human; settings: 2 μg/ml LPS + 100 nM praziquantel vs LPS alone
Description: as §1

[4] = tested on: IKK α/β; experiment: Phosphorylated IKK α/β in LPS-treated differentiated THP-1 cells (Western blotting); type: cell-based, human; settings: 2 μg/ml LPS + 100 nM praziquantel vs LPS alone
Description: as §1

[5] = tested on: NF-κB; experiment: NF-κB total level and nuclear translocation in LPS-treated differentiated THP-1 cells (Western blotting); type: cell-based, human; settings: 2 μg/ml LPS + 100 nM praziquantel
Description: as §1

[6] = tested on: TNF-α; experiment: Serum TNF-α (ELISA) in acute mouse sepsis model (LPS/D-galactosamine); type: in vivo, C57BL/6 mice; settings: 12.5, 25 or 50 mg/kg oral, 30 minutes prior to LPS/D-galactosamine
[7] = tested on: LPS/D-galactosamine-induced acute sepsis; experiment: Survival of LPS/D-galactosamine-treated mice (acute sepsis); type: in vivo, C57BL6 mice
Description: An acute mouse in vivo sepsis model was used to determine the ability of praziquantel to reduce TNF-α levels. C57BL/6 mice were used which were 7 to 8 weeks old and weighed 25 to 30 g. Fodder (Daehan Biolink) and water were administered ad libitum, and the temperature and relative humidity of the nursery cage were maintained at 21-24° C. and 40-80%, respectively. In addition, the nursery cage light was controlled to switch between day and night every 12 hours. Eight to ten mice were assigned to each experimental group. Each mouse was intraperitoneally (ip) administered 8 ng LPS (Sigma Aldrich) and 8 mg D-galactosamine (SIGMA), each dissolved in 100 μl distilled water, to induce acute sepsis. In order to investigate the effect of praziquantel on TNF-α levels in blood, praziquantel was orally administered to each experimental group at dosages of 12.5 mg/kg, 25 mg/kg or 50 mg/kg, 30 minutes prior to treatment with LPS/D-galactosamine. The blood was sampled 1, 3 and 5 hours after treatment with praziquantel. Serum was isolated from the sampled blood, and the amount of TNF-α was measured by ELISA (R&D Systems, Minneapolis, Minn.).
Female C57BL6 mice (8-10 per experimental group) were treated as described above to induce acute sepsis, and the same doses of praziquantel were administered 30 minutes prior to treatment with LPS/D-galactosamine.

[8] = tested on: p38 kinase; experiment: p38 kinase amount and phosphorylation in blood mononuclear cells of LPS/D-galactosamine-treated mice (western blotting); type: in vivo; settings: 50 mg/kg oral 30 minutes prior to LPS/D-galactosamine; blood 3 hours later
Description: (§2) Mice were orally administered 50 mg/kg praziquantel 30 minutes prior to ip injection of 8 ng LPS and 8 mg D-galactosamine. Blood samples were taken 3 hours later, and mononuclear cells were isolated using Histopaque (Sigma Aldrich, cat #1080). Protein levels and their phosphorylation states were then determined by western blotting.

[9] = tested on: ATF-2; experiment: ATF-2 phosphorylation in blood mononuclear cells of LPS/D-galactosamine-treated mice (western blotting); type: in vivo; settings: 50 mg/kg oral 30 minutes prior to LPS/D-galactosamine; blood 3 hours later
Description: as §2

[10] = tested on: IKK-α; experiment: IKK-α phosphorylation in blood mononuclear cells of LPS/D-galactosamine-treated mice (western blotting); type: in vivo; settings: 50 mg/kg oral 30 minutes prior to LPS/D-galactosamine; blood 3 hours later
Description: as §2, with “blotting. […] The amount of IKK-α and IKK-β proteins and their phosphorylation states were also examined. […] IKK-α and IKK-β are known to phosphorylate IκB, and phosphorylated IκB is degraded by a protease.” for “blotting.”

[11] = tested on: IKK-β; experiment: IKK-β phosphorylation in blood mononuclear cells of LPS/D-galactosamine-treated mice (western blotting); type: in vivo; settings: 50 mg/kg oral 30 minutes prior to LPS/D-galactosamine; blood 3 hours later
Description: as §2, with “blotting. […] The amount of IKK-α and IKK-β proteins and their phosphorylation states were also examined. […] IKK-α and IKK-β are known to phosphorylate IκB, and phosphorylated IκB is degraded by a protease.” for “blotting.”

[12] = tested on: IκB; experiment: IκB amount and phosphorylation in blood mononuclear cells of LPS/D-galactosamine-treated mice (western blotting); type: in vivo; settings: 50 mg/kg oral 30 minutes prior to LPS/D-galactosamine; blood 3 hours later
Description: as §2, with “blotting. […] The amount of IKK-α and IKK-β proteins and their phosphorylation states were also examined. […] IKK-α and IKK-β are known to phosphorylate IκB, and phosphorylated IκB is degraded by a protease.” for “blotting.”

[13] = tested on: TNF-α; experiment: Mouse collagen-induced arthritis model: serum TNF-α; type: in vivo, DBA/1 mice; settings: 50 mg/kg oral suspension in saline, once or twice a day for three weeks; vs vehicle
Description: (§3) Male DBA/1 mice, obtained from the Jackson Laboratory, are maintained in groups of three to five in polycarbonate cages and fed standard mouse chow and water ad libitum. The environment is made specifically pathogen-free. Mice are immunized with bovine type II collagen (CII), at 8 to 12 weeks of age, as described previously (Arthritis Rheum. 2002, 46:1109, 2002; J. Immunol., 5846, 2005). Briefly, CII is dissolved in 0.05N acetic acid at 2 mg/ml, and emulsified (1:1 ratio) with complete Freund's adjuvant (CFA) at 4° C. The mice receive 0.1 ml of the emulsion, containing 100 μg of CII, in the base of the tail as a primary immunization. Booster injections are given into the footpad with 50 μg of CII, similarly dissolved and emulsified with CFA (1:1), 14 days after the primary immunization. CIA develops as early as 3 wk, peaks at 5-7 wk, and thereafter spontaneously resolves at 10 wk. Mice are divided into two groups. One group is administered vehicle (saline), and the other group is administered an oral suspension of 50 mg/kg praziquantel in saline starting 2 weeks after the CII booster injection. Praziquantel administration is continued once or twice a day for three weeks after the initial administration.
(§4) TNF-α and p38 levels in blood are then assayed as described above, and the incidence and severity of arthritis in the two groups of mice are determined by visual inspection.

[14] = tested on: p38; experiment: Mouse collagen-induced arthritis model: serum p38; type: in vivo, DBA/1 mice; settings: 50 mg/kg oral suspension in saline, once or twice a day for three weeks; vs vehicle
Description: as §3, §4

[15] = tested on: collagen-induced arthritis; experiment: Mouse collagen-induced arthritis model: severity of arthritis by visual inspection; type: in vivo, DBA/1 mice; settings: 50 mg/kg oral suspension in saline, once or twice a day for three weeks; vs vehicle
Description: as §3, §4

[16] = rats; cited from earlier work
[17] = dogs dosed with 100 mg/kg; cited from earlier work
[18] = cats dosed with 100 mg/kg; cited from earlier work

## O=C(C1CCCCC1)N1CC(=O)N2CCc3ccccc3C2C1 (stereo not drawn) [Praziquantel, 2-(cyclohexylcarbonyl)-1,2,3,6,7,11β-hexahydro-4H-pyrazino[2,1-α]isoquinoline-4-one]
[1]; 2 μg/ml LPS + 100 nM praziquantel vs LPS alone, one, two and three hours
  amount of TNF-α: much less TNF-α
[1]; 2 μg/ml LPS + 100 nM praziquantel, two and three hour time points
  amount of TNF-α: barely detectable
[2]
  active (phosphorylated) form of p38: Significant reductions
[3]
  active (phosphorylated) form of ATF-2: Significant reductions
[4]
  active (phosphorylated) form of IKK α/β: Significant reductions
[5]
  total NF-κB levels: not affected
[5]; nuclear fraction
  translocation of NF-κB to the nucleus: did not occur
[6]
  amount of TNF-α in blood serum: dose-dependent decrease
[7]; 12.5 mg/kg oral, 0 h
  Survival (# of mice): (30/30)
  Survival rate: 100%
[7]; 12.5 mg/kg oral, 5 h
  Survival (# of mice): (30/30)
  Survival rate: 100%
[7]; 12.5 mg/kg oral, 6 h
  Survival (# of mice): (26/30)
  Survival rate: 86%
[7]; 12.5 mg/kg oral, 7 h
  Survival (# of mice): (17/30)
  Survival rate: 57%
[7]; 12.5 mg/kg oral, 8 h
  Survival (# of mice): (15/30)
  Survival rate: 50%
[7]; 12.5 mg/kg oral, 9 h
  Survival (# of mice): (13/30)
  Survival rate: 43%
[7]; 12.5 mg/kg oral, 10 h
  Survival (# of mice): (4/30)
  Survival rate: 14%
[7]; 12.5 mg/kg oral, 11 h
  Survival (# of mice): (4/30)
  Survival rate: 14%
[7]; 12.5 mg/kg oral, 12 h
  Survival (# of mice): (4/30)
  Survival rate: 14%
[7]; 12.5 mg/kg oral, >24 h
  Survival (# of mice): (4/30)
  Survival rate: 14%
[7]; 25 mg/kg oral, 0 h
  Survival (# of mice): (30/30)
  Survival rate: 100%
[7]; 25 mg/kg oral, 5 h
  Survival (# of mice): (30/30)
  Survival rate: 100%
[7]; 25 mg/kg oral, 6 h
  Survival (# of mice): (28/30)
  Survival rate: 93%
[7]; 25 mg/kg oral, 7 h
  Survival (# of mice): (21/30)
  Survival rate: 71%
[7]; 25 mg/kg oral, 8 h
  Survival (# of mice): (21/30)
  Survival rate: 71%
[7]; 25 mg/kg oral, 9 h
  Survival (# of mice): (21/30)
  Survival rate: 71%
[7]; 25 mg/kg oral, 10 h
  Survival (# of mice): (21/30)
  Survival rate: 71%
[7]; 25 mg/kg oral, 11 h
  Survival (# of mice): (21/30)
  Survival rate: 71%
[7]; 25 mg/kg oral, 12 h
  Survival (# of mice): (19/30)
  Survival rate: 64%
[7]; 25 mg/kg oral, >24 h
  Survival (# of mice): (19/30)
  Survival rate: 64%
[7]; 50 mg/kg oral, 0 h
  Survival (# of mice): (30/30)
  Survival rate: 100%
[7]; 50 mg/kg oral, 5 h
  Survival (# of mice): (30/30)
  Survival rate: 100%
[7]; 50 mg/kg oral, 6 h
  Survival (# of mice): (28/30)
  Survival rate: 93%
[7]; 50 mg/kg oral, 7 h
  Survival (# of mice): (28/30)
  Survival rate: 93%
[7]; 50 mg/kg oral, 8 h
  Survival (# of mice): (28/30)
  Survival rate: 93%
[7]; 50 mg/kg oral, 9 h
  Survival (# of mice): (28/30)
  Survival rate: 93%
[7]; 50 mg/kg oral, 10 h
  Survival (# of mice): (28/30)
  Survival rate: 93%
[7]; 50 mg/kg oral, 11 h
  Survival (# of mice): (28/30)
  Survival rate: 93%
[7]; 50 mg/kg oral, 12 h
  Survival (# of mice): (28/30)
  Survival rate: 93%
[7]; 50 mg/kg oral, >24 h
  Survival (# of mice): (28/30)
  Survival rate: 93%
[8]
  amount of p38 protein: did not change
  phosphorylation of p38 kinase: inhibited
[9]
  phosphorylation of ATF-2: inhibited
[10]
  phosphorylation of IKK-α: inhibited
[11]
  phosphorylation of IKK-β: inhibited
[12]
  amount of IκB protein: did not decrease
  phosphorylation of IκB: inhibited
[13]
  serum levels of TNF-α: significantly reduced
[14]
  serum levels of p38: significantly reduced
[15]
  severity of arthritis: greatly reduced
[16]
  LD50: 2,000-3,000 mg/kg
[17]
  adverse effects: No adverse effects
[18]
  adverse effects: No adverse effects
